Reference: ChEMBL document CHEMBL1201862, “PubChem BioAssay data set” (2004)
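The compound was tested at five concentrations on cells cultured in 96-well plates, with a 48-hour exposure period. The concentration for 50% growth inhibition is given as GI50.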 Calls of active or inactive are those of the source. Cut-off read from the data, not from the text of the source: active = GI50 up to about 1.1 µM and inactive = higher.

Tests used:
Test in all cases: inhibition of tumour cell growth, NCI panel, 48 h
U-251 = system: U-251
HT-29 = system: HT-29
UACC-257 = system: UACC-257
OVCAR-8 = system: OVCAR-8
SF-268 = system: SF-268
SF-539 = system: SF-539
HCC 2998 = system: HCC 2998
DU-145 = system: DU-145
KM12 = system: KM12
HL-60 = system: HL-60
RXF 393 = system: RXF 393
K562 = system: K562
HOP-92 = system: HOP-92
Malme-3M = system: Malme-3M
LOX IMVI = system: LOX IMVI
MDA-MB-435 = system: MDA-MB-435
MDA-N = system: MDA-N
OVCAR-4 = system: OVCAR-4
SNB-19 = system: SNB-19
HCT-15 = system: HCT-15
SW-620 = system: SW-620
A498 = system: A498
CAKI-1 = system: CAKI-1
OVCAR-5 = system: OVCAR-5
SK-OV-3 = system: SK-OV-3
SF-295 = system: SF-295
COLO 205 = system: COLO 205
SK-MEL-2 = system: SK-MEL-2
SK-MEL-5 = system: SK-MEL-5
A549 = system: A549
Hs-578T = system: Hs-578T
MDA-MB-231 = system: MDA-MB-231
IGROV-1 = system: IGROV-1
786-0 = system: 786-0
SN12C = system: SN12C
EKVX = system: EKVX
T47D = system: T47D
ACHN = system: ACHN
OVCAR-3 = system: OVCAR-3
NCI-H23 = system: NCI-H23
NCI-H460 = system: NCI-H460
NCI-H226 = system: NCI-H226
HOP-62 = system: HOP-62
HCT-116 = system: HCT-116
RPMI-8226 = system: RPMI-8226
UO-31 = system: UO-31
CCRF-CEM = system: CCRF-CEM
M14 = system: M14
TK-10 = system: TK-10
PC-3 = system: PC-3
BT-549 = system: BT-549
UACC-62 = system: UACC-62
NCI/ADR-RES = system: NCI/ADR-RES
SK-MEL-28 = system: SK-MEL-28
MOLT-4 = system: MOLT-4
MCF7 = system: MCF7
NCI-H522 = system: NCI-H522
SNB-75 = system: SNB-75

**Q.** Which GI50 (U-251) does the source give for `O=[N+]([O-])c1ccc2nc3c(nc2c1)-c1c2ccccc2cc2cccc-3c12` here?
**A.** 5.9 µM (inactive)

**Q.** And the GI50 (HT-29)?
**A.** 5.31 µM (inactive)

**Q.** What about the GI50 (UACC-257) of the same molecule?
**A.** 18.8 µM (inactive)

**Q.** What about the GI50 (OVCAR-8) of the same molecule?
**A.** 7.55 µM (inactive)

**Q.** And the GI50 (SF-268)?
**A.** 13.8 µM (inactive)

**Q.** And the GI50 (SF-539)?
**A.** 15 µM (inactive)

**Q.** What about the GI50 (HCC 2998) of the same molecule?
**A.** 33.3 µM (inactive)

**Q.** What about the GI50 (DU-145) of the same molecule?
**A.** 28.2 µM (inactive)

**Q.** And the GI50 (KM12)?
**A.** 3.61 µM (inactive)

**Q.** What about the GI50 (HL-60) of the same molecule?
**A.** 20.5 µM (inactive)

**Q.** And the GI50 (RXF 393)?
**A.** 8.41 µM (inactive)

**Q.** And the GI50 (K562)?
**A.** 6.1 µM (inactive)

**Q.** And the GI50 (HOP-92)?
**A.** 14.9 µM (inactive)

**Q.** What about the GI50 (Malme-3M) of the same molecule?
**A.** 19 µM (inactive)

**Q.** What about the GI50 (LOX IMVI) of the same molecule?
**A.** 4.8 µM (inactive)

**Q.** And the GI50 (MDA-MB-435)?
**A.** 27.8 µM (inactive)

**Q.** And the GI50 (MDA-N)?
**A.** 10.5 µM (inactive)

**Q.** And the GI50 (OVCAR-4)?
**A.** 24.3 µM (inactive)

**Q.** What about the GI50 (SNB-19) of the same molecule?
**A.** 11.7 µM (inactive)

**Q.** And the GI50 (HCT-15)?
**A.** 6.28 µM

**Q.** And the GI50 (SW-620)?
**A.** 4.83 µM (inactive)

**Q.** And the GI50 (A498)?
**A.** 0.427 µM (active)

**Q.** And the GI50 (CAKI-1)?
**A.** 9.77 µM (inactive)

**Q.** And the GI50 (OVCAR-5)?
**A.** 51.8 µM (inactive)

**Q.** What about the GI50 (SK-OV-3) of the same molecule?
**A.** 17.5 µM (inactive)

**Q.** And the GI50 (SF-295)?
**A.** 19.6 µM (inactive)

**Q.** And the GI50 (COLO 205)?
**A.** > 100 µM (inactive)

**Q.** What about the GI50 (SK-MEL-2) of the same molecule?
**A.** 27.2 µM (inactive)

**Q.** And the GI50 (SK-MEL-5)?
**A.** 31.8 µM (inactive)

**Q.** What about the GI50 (A549) of the same molecule?
**A.** 48.6 µM (inactive)

**Q.** What about the GI50 (Hs-578T) of the same molecule?
**A.** 5.37 µM (inactive)

**Q.** And the GI50 (MDA-MB-231)?
**A.** 18.7 µM (inactive)

**Q.** What about the GI50 (IGROV-1) of the same molecule?
**A.** 4.43 µM (inactive)

**Q.** And the GI50 (786-0)?
**A.** 7.62 µM (inactive)

**Q.** And the GI50 (SN12C)?
**A.** 10.7 µM (inactive)

**Q.** What about the GI50 (EKVX) of the same molecule?
**A.** 26.4 µM (inactive)

**Q.** What about the GI50 (T47D) of the same molecule?
**A.** 0.142 µM (active)

**Q.** And the GI50 (ACHN)?
**A.** 2.74 µM (inactive)

**Q.** What about the GI50 (OVCAR-3) of the same molecule?
**A.** 12.3 µM (inactive)

**Q.** What about the GI50 (NCI-H23) of the same molecule?
**A.** 3.61 µM (inactive)

**Q.** And the GI50 (NCI-H460)?
**A.** 19.7 µM (inactive)

**Q.** What about the GI50 (NCI-H226) of the same molecule?
**A.** 12.7 µM (inactive)

**Q.** And the GI50 (HOP-62)?
**A.** 18.6 µM (inactive)

**Q.** What about the GI50 (HCT-116) of the same molecule?
**A.** 2.87 µM (inactive)

**Q.** What about the GI50 (RPMI-8226) of the same molecule?
**A.** 17.7 µM (inactive)

**Q.** And the GI50 (UO-31)?
**A.** 12.1 µM (inactive)

**Q.** And the GI50 (CCRF-CEM)?
**A.** 6.12 µM (inactive)

**Q.** And the GI50 (M14)?
**A.** 31.3 µM (inactive)

**Q.** And the GI50 (TK-10)?
**A.** 25.1 µM (inactive)

**Q.** And the GI50 (PC-3)?
**A.** 9.55 µM (inactive)

**Q.** And the GI50 (BT-549)?
**A.** 3.56 µM (inactive)

**Q.** And the GI50 (UACC-62)?
**A.** 10.5 µM (inactive)

**Q.** And the GI50 (NCI/ADR-RES)?
**A.** 3.97 µM (inactive)

**Q.** What about the GI50 (SK-MEL-28) of the same molecule?
**A.** 51.4 µM (inactive)

**Q.** What about the GI50 (MOLT-4) of the same molecule?
**A.** 2.17 µM (inactive)

**Q.** What about the GI50 (MCF7) of the same molecule?
**A.** 4.06 µM (inactive)

**Q.** And the GI50 (NCI-H522)?
**A.** 3.3 µM (inactive)

**Q.** `O=C(O)c1cc2ccccc2c(S(=O)(=O)O)c1O` was tested. Which GI50 (U-251) did it give?
**A.** > 100 µM (inactive)

**Q.** And the GI50 (HT-29)?
**A.** > 100 µM (inactive)

**Q.** What about the GI50 (UACC-257) of the same molecule?
**A.** > 100 µM (inactive)

**Q.** What about the GI50 (OVCAR-8) of the same molecule?
**A.** > 100 µM (inactive)

**Q.** And the GI50 (SF-268)?
**A.** > 100 µM (inactive)

**Q.** What about the GI50 (SF-539) of the same molecule?
**A.** > 100 µM (inactive)

**Q.** What about the GI50 (HCC 2998) of the same molecule?
**A.** > 100 µM (inactive)

**Q.** And the GI50 (DU-145)?
**A.** > 100 µM (inactive)

**Q.** And the GI50 (KM12)?
**A.** > 100 µM (inactive)

**Q.** And the GI50 (HL-60)?
**A.** > 100 µM (inactive)

**Q.** And the GI50 (RXF 393)?
**A.** > 100 µM (inactive)

**Q.** And the GI50 (K562)?
**A.** > 100 µM (inactive)

**Q.** What about the GI50 (HOP-92) of the same molecule?
**A.** > 100 µM (inactive)

**Q.** And the GI50 (Malme-3M)?
**A.** > 100 µM (inactive)

**Q.** And the GI50 (LOX IMVI)?
**A.** > 100 µM (inactive)

**Q.** What about the GI50 (MDA-MB-435) of the same molecule?
**A.** > 100 µM (inactive)

**Q.** And the GI50 (MDA-N)?
**A.** > 100 µM (inactive)

**Q.** What about the GI50 (OVCAR-4) of the same molecule?
**A.** > 100 µM (inactive)

**Q.** And the GI50 (SNB-19)?
**A.** > 100 µM (inactive)

**Q.** What about the GI50 (HCT-15) of the same molecule?
**A.** > 100 µM

**Q.** And the GI50 (SW-620)?
**A.** > 100 µM (inactive)

**Q.** What about the GI50 (A498) of the same molecule?
**A.** > 100 µM (inactive)

**Q.** What about the GI50 (CAKI-1) of the same molecule?
**A.** > 100 µM (inactive)

**Q.** What about the GI50 (OVCAR-5) of the same molecule?
**A.** > 100 µM (inactive)

**Q.** And the GI50 (SK-OV-3)?
**A.** > 100 µM (inactive)

**Q.** And the GI50 (SF-295)?
**A.** > 100 µM (inactive)

**Q.** What about the GI50 (SNB-75) of the same molecule?
**A.** > 100 µM (inactive)

**Q.** And the GI50 (COLO 205)?
**A.** > 100 µM (inactive)

**Q.** And the GI50 (SK-MEL-2)?
**A.** > 100 µM (inactive)

**Q.** And the GI50 (SK-MEL-5)?
**A.** > 100 µM (inactive)

**Q.** What about the GI50 (A549) of the same molecule?
**A.** > 100 µM (inactive)

**Q.** What about the GI50 (Hs-578T) of the same molecule?
**A.** > 100 µM (inactive)

**Q.** And the GI50 (MDA-MB-231)?
**A.** > 100 µM (inactive)

**Q.** What about the GI50 (IGROV-1) of the same molecule?
**A.** > 100 µM (inactive)

**Q.** And the GI50 (786-0)?
**A.** > 100 µM (inactive)

**Q.** And the GI50 (SN12C)?
**A.** > 100 µM (inactive)

**Q.** And the GI50 (EKVX)?
**A.** > 100 µM (inactive)

**Q.** And the GI50 (T47D)?
**A.** > 100 µM (inactive)

**Q.** And the GI50 (ACHN)?
**A.** > 100 µM (inactive)

**Q.** What about the GI50 (OVCAR-3) of the same molecule?
**A.** > 100 µM (inactive)

**Q.** What about the GI50 (NCI-H23) of the same molecule?
**A.** > 100 µM (inactive)

**Q.** What about the GI50 (NCI-H460) of the same molecule?
**A.** > 100 µM (inactive)

**Q.** What about the GI50 (HOP-62) of the same molecule?
**A.** > 100 µM (inactive)

**Q.** What about the GI50 (HCT-116) of the same molecule?
**A.** > 100 µM (inactive)

**Q.** What about the GI50 (RPMI-8226) of the same molecule?
**A.** > 100 µM (inactive)

**Q.** And the GI50 (UO-31)?
**A.** > 100 µM (inactive)

**Q.** What about the GI50 (CCRF-CEM) of the same molecule?
**A.** > 100 µM (inactive)

**Q.** What about the GI50 (M14) of the same molecule?
**A.** > 100 µM (inactive)

**Q.** What about the GI50 (TK-10) of the same molecule?
**A.** > 100 µM (inactive)

**Q.** What about the GI50 (PC-3) of the same molecule?
**A.** > 100 µM (inactive)

**Q.** What about the GI50 (BT-549) of the same molecule?
**A.** > 100 µM (inactive)

**Q.** What about the GI50 (UACC-62) of the same molecule?
**A.** > 100 µM (inactive)

**Q.** And the GI50 (NCI/ADR-RES)?
**A.** > 100 µM (inactive)

**Q.** And the GI50 (SK-MEL-28)?
**A.** > 100 µM (inactive)

**Q.** What about the GI50 (MOLT-4) of the same molecule?
**A.** > 100 µM (inactive)

**Q.** What about the GI50 (MCF7) of the same molecule?
**A.** > 100 µM (inactive)

**Q.** And the GI50 (NCI-H522)?
**A.** > 100 µM (inactive)
